The source of these data is patent publication US20200405696A1, “INHIBITORS OF INDOLEAMINE 2,3-DIOXYGENASE AND/OR TRYPTOPHAN 2,3-DIOXYGENASE” (IDORSIA PHARMACEUTICALS LTD, priority 2018, published 2020).

As a reminder, the IC50 is the point on the concentration scale where inhibition reaches its midpoint.

Some results are limits rather than exact numbers.

Assay [1] has as its target T1, Recombinant human TDO comprising amino acids 19-407 (Homo sapiens, UniProt P48775).
T1 construct: Recombinant human TDO comprising amino acids 19-407 with a N-terminal hexahistidine tag; hexahistidine (His6) (N); made in house; host or cells: E. coli
The assay can be described thus: TDO2 enzymatic assay (NFK quantified by LCMS). The note with it: 15 nM enzyme, 200 μM L-tryptophan, pH7, 30 minutes pre-incubation at RT; mean values when measured multiple times; read-out: hTDO activity (IC50 in nM). It is filed as biochemical. In outline: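 NFK formed over 30 min at RT from 200 μM L-tryptophan was measured by LCMS, normalized to d5-tryptophan, after compound (0.5 nM–10 μM, duplicates, 0.6% DMSO) was preincubated 30 min with 15 nM recombinant His-tagged TDO 19-407 in phosphate buffer pH 7. IC50 from four-parameter logistic fit; repeats averaged.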

The target of assay [2] is T2, Recombinant full-length human IDO1 (Homo sapiens, UniProt P14902).
T2 construct: Recombinant full-length human IDO1 with a N-terminal hexahistidine tag; hexahistidine (His6) (N); made in house; host or cells: E. coli
T2 sequence (P14902 whole entry): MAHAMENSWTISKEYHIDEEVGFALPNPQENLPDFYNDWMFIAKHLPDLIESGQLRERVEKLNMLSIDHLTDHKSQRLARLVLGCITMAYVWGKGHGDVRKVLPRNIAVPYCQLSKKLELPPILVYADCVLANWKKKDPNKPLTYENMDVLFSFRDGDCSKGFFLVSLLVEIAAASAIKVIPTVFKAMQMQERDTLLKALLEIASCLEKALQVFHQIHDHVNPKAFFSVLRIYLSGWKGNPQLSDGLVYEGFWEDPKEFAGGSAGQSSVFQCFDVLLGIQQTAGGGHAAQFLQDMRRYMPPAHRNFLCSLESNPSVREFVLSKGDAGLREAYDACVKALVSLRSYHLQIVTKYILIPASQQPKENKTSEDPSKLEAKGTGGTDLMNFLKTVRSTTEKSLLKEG
Briefly: IDO1 enzymatic assay (NFK quantified by LCMS). It is filed as biochemical. The note with it: 2 nM enzyme, 5 μM L-tryptophan, pH6.5, 30 minutes pre-incubation at RT; mean values when measured multiple times; read-out: hIDO activity (IC50 in nM). In outline:
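IC50 comes from four-parameter logistic fits of duplicate data, with NFK quantified by LCMS and normalized to L-Trp-(indole-d5). Compound (0.5 nM–10 μM) was preincubated 30 min at RT with 2 nM E. coli-expressed IDO1 before a 30 min reaction with 5 μM tryptophan in pH 6.5 buffer containing ascorbate and methylene blue.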

T1 sequence (P48775 19-406 limits assumed): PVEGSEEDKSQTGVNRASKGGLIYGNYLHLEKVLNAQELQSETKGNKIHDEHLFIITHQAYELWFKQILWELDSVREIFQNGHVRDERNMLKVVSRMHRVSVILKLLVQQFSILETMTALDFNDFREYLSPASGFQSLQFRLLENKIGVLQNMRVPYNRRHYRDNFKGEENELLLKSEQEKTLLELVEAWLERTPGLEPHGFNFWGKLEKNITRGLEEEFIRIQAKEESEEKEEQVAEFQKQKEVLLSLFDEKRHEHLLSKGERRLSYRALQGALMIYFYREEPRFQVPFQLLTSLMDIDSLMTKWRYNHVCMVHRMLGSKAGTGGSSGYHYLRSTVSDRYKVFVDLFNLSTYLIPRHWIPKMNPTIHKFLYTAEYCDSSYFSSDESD

For the compound `OC(c1cn(-c2ccc(OCc3ccccc3)nc2)nn1)c1c(C2CC2)sc2cncn12` (racemic) [Example 77, rac-[1-(6-Benzyloxy-pyridin-3-yl)-1H-[1,2,3]triazol-4-yl]-(2-cyclopropyl-imidazo[5,1-b]thiazol-3-yl)-methanol], the IC50 in assay [1] was above 10200 nM; in assay [2], 32.7 nM.
For `CC(C)(O)CCOc1ccc(-n2cc(C(O)c3c([C@@H]4C[C@H]4F)sc4cncn34)nn2)cc1Cl` (relative stereo) [Example 308, 4-[2-Chloro-4-(4-{[2-(trans-2-fluoro-cyclopropyl)-imidazo[5,1-b]thiazol-3-yl]-hydroxy-methyl}-[1,2,3]triazol-1-yl)-phenoxy]-2-methyl-butan-2-ol], in that order: above 10200 nM and 12.7 nM.
`COc1ccc(-n2cc(C(O)c3c(C4CC4)sc4cncn34)nn2)cc1I` (racemic) [Example 291, rac-(2-Cyclopropyl-imidazo[5,1-b]thiazol-3-yl)-[1-(3-iodo-4-methoxy-phenyl)-1H-[1,2,3]triazol-4-yl]-methanol]: the results for the IC50 in assay [1] and in assay [2] were above 10200 nM and 41.1 nM, respectively.
For `CNS(=O)(=O)Nc1ccc(-n2cc(C(O)c3c(C4CC4)sc4cncn34)nn2)cc1` (racemic) [Example 256, rac-4-{4-[(2-Cyclopropyl-imidazo[5,1-b]thiazol-3-yl)-hydroxy-methyl]-[1,2,3]triazol-1-yl}-((N-methylsulfamoyl)amino)-benzene] the same measures were above 10200 nM and 26.3 nM.
For `CCc1sc2cncn2c1C(O)c1cn(-c2cccc(C#N)c2)nn1` (racemic) [Example 51, rac-3-{4-[(2-Ethyl-imidazo[5,1-b]thiazol-3-yl)-hydroxy-methyl]-[1,2,3]triazol-1-yl}-benzonitrile] the same measures were above 10200 nM and 37.1 nM.
`OC[C@H](O)COc1ccc(-n2cc(C(O)c3c(C4CC4)sc4cncn34)nn2)cc1` (mixture of isomers) [Example 202, (S)-3-(4-{4-[(R)-(2-Cyclopropyl-imidazo[5,1-b]thiazol-3-yl)-hydroxy-methyl]-[1,2,3]triazol-1-yl}-phenoxy)-propane-1,2-diol and (S)-3-(4-{4-[(S)-(2-Cyclopropyl-imidazo[5,1-b]thiazol-3-yl)-hydroxy-methyl]-[1,2,3]triazol-1-yl}-phenoxy)-propane-1,2-diol]: the values for the half-maximal inhibitory concentration (IC50) in assay [1] and in assay [2] were above 10200 nM and 15 nM, respectively.
In the case of `O[C@@H](c1cn(-c2ccc3[nH]ccc3c2)nn1)c1c(C2CC2)sc2cncn12` [Example 16a, (R)-(2-Cyclopropyl-imidazo[5,1-b]thiazol-3-yl)-[1-(1H-indol-5-yl)-1H-[1,2,3]triazol-4-yl]-methanol], the IC50 is 4570 nM in assay [1] and 4.55 nM in assay [2].
For `OC(c1cn(-c2ccncc2)nn1)c1c(C2CC2)sc2cncn12` (racemic) [Example 30, rac-(2-Cyclopropyl-imidazo[5,1-b]thiazol-3-yl)-(1-pyridin-4-yl-1H-[1,2,3]triazol-4-yl)-methanol] the same measures were above 10200 nM and 63.2 nM.
For `COc1ncc(-n2cc(C(O)c3c(C4CC4)sc4cncn34)nn2)cc1F` (racemic) [Example 79, rac-(2-Cyclopropyl-imidazo[5,1-b]thiazol-3-yl)-[1-(5-fluoro-6-methoxy-pyridin-3-yl)-1H-[1,2,3]triazol-4-yl]-methanol] the same measures were above 10200 nM and 7.22 nM.
For `Oc1ccc(-n2cc(C(O)c3c(C4CC4)sc4cncn34)nn2)c(OC(F)(F)F)c1` (racemic) [Example 213, rac-4-{4-[(2-Cyclopropyl-imidazo[5,1-b]thiazol-3-yl)-hydroxy-methyl]-[1,2,3]triazol-1-yl}-3-trifluoromethoxy-phenol] the same measures were 2620 nM and 199 nM.
Take `COc1ccc(-n2cc(C(O)c3c(C4CC4)sc4cncn34)cn2)cc1` (racemic) [Example 99, rac-(2-Cyclopropyl-imidazo[5,1-b]thiazol-3-yl)-[1-(4-methoxy-phenyl)-1H-pyrazol-4-yl]-methanol]: the IC50 came out at 3570 nM in assay [1] and 31.8 nM in assay [2].
On to `CCc1sc2cncn2c1C(O)c1cn(-c2ccc(C3(CO)CC3)cc2)nn1` (racemic) [Example 48, rac-(2-Ethyl-imidazo[5,1-b]thiazol-3-yl)-{1-[4-(1-hydroxymethyl-cyclopropyl)-phenyl]-1H-[1,2,3]triazol-4-yl}-methanol], for which the IC50 in assay [1] is above 10200 nM; in assay [2], 60.6 nM.
For `COCCOc1ccc(-n2cc(C(O)c3c(C4CC4)sc4cncn34)nn2)cc1` (racemic) [Example 91, rac-(2-Cyclopropyl-imidazo[5,1-b]thiazol-3-yl)-{1-[4-(2-methoxy-ethoxy)-phenyl]-1H-[1,2,3]triazol-4-yl}-methanol], the IC50 in assay [1] was above 10200 nM; in assay [2], 12.9 nM.
For `CCc1sc2cncn2c1C(O)c1cn(-c2ccc(C(=O)NCCO)cc2)nn1` (racemic) [Example 118, rac-4-{4-[(2-Ethyl-imidazo[5,1-b]thiazol-3-yl)-hydroxy-methyl]-[1,2,3]triazol-1-yl}-N-(2-hydroxy-ethyl)-benzamide] the same measures were 9550 nM and 15.8 nM.
As for `COc1ccc(-n2cc(C(O)c3c(C4CC4)sc4cncn34)cn2)cc1C#N` (racemic) [Example 247, rac-5-{4-[(2-Cyclopropyl-imidazo[5,1-b]thiazol-3-yl)-hydroxy-methyl]-pyrazol-1-yl}-2-methoxy-benzonitrile], the IC50 in assay [1] amounted to 8140 nM; in assay [2] it was 31.3 nM.
In the case of `CC(C)(O)COc1ccc(-n2cc(C(O)c3c(C4CC4)sc4cncn34)nn2)cc1` (racemic) [Example 139, rac-1-(4-{4-[(2-Cyclopropyl-imidazo[5,1-b]thiazol-3-yl)-hydroxy-methyl]-[1,2,3]triazol-1-yl}-phenoxy)-2-methyl-propan-2-ol], the 50% inhibitory concentration (IC50) in assay [1] is above 10200 nM; in assay [2] it was 14.6 nM.
